Results: patent EP4653437A2 (Innovo Therapeutics Inc., priority 2023, dated 2024)

Key:
[1] = target: T1, human 15-PGDH (Homo sapiens, UniProt P15428); assay: Evaluation of 15-PGDH inhibitory activity (fluorescence enzyme assay, NAD+/PGE2); assay type: biochemical; conditions: human 15-PGDH enzyme, fluorescence Vmax
T1 construct: purchased R&D System 5660-DH
T1 sequence (P15428 1-266): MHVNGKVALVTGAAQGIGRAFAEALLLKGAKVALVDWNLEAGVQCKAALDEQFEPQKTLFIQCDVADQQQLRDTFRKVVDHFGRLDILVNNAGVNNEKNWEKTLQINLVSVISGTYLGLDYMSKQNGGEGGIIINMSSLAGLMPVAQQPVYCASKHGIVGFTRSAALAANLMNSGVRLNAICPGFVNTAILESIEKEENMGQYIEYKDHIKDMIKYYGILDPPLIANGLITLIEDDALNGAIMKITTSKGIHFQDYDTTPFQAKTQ
Experimental: 15-PGDH inhibition activity of Example compounds was measured as follows. 6.7 ng of human 15-PGDH (R&D System# 5660-DH) enzyme (10 µL) was added to a black 96 well plate, 60 µL of buffer (50 mM Tris-HCl, pH 7.5, 0.01% Tween 20) was added, and 10 µL of 200 µM β-Nicotinamide adenine dinucleotide sodium salt (Sigma, Cat# N0632-5G) was added. 10 µL of (10x) compound solution in DMSO was added and reacted for 10 minutes at room temperature.

[2] = system: A549 cells; assay: Measurement of PGE2-increasing activity in A549 cells (IL-1β stimulated, PGE2 quantified in supernatant); assay type: cell-based; conditions: Homo sapiens, 24 h; concentration of 1 µM of each compound; IL-1β treated A549 cells; read-out: Increased PGE2 production in A549 cells
Summary of the method: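 PGE2 secreted into the supernatant was measured by immunoassay 24 h after treatment. Before treatment, A549 cells were cultured 24 h in 10% FBS F12K, washed, and placed in serum-free medium containing compound (DMSO 0.1% final) plus or minus IL-1β, incubated at 37 °C, 5% CO2.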

Row | IC50 [1] | SMILES | fold induction at 1 µM [2]
1 | ≤ 100 nM | O=C(O)c1ncc(-c2cccc3c(C(=O)N4CCCCC4)cnn23)cc1Cl [Example 258, 3-chloro-5-[3-(piperidine-1-carbonyl)pyrazolo[1,5-a]pyridin-7-yl]pyridine-2-carboxylic acid] | < 1.5
2 | ≤ 100 nM | O=C(c1ncc(-c2cccc3c(C(=O)N4CCCCC4)cnn23)cc1F)N1CCC1 [Example 248, [7-[6-(azetidine-1-carbonyl)-5-fluoro-3-pyridyl]pyrazolo[1,5-a]pyridin-3-yl]-(1-piperidyl)methanone] | > 1.5
3 | ≤ 100 nM | O=C(Cc1cncnc1)Nc1ccc(-c2cccc3c(C(=O)N4CCCCC4)cnn23)cn1 [Example 407, N-[5-[3-(piperidine-1-carbonyl)pyrazolo[1,5-a]pyridin-7-yl]-2-pyridyl]-2-pyrimidin-5-yl-acetamide] | > 1.5
4 | ≤ 100 nM | O=C(NCc1ccon1)c1ccc(-c2cccc3c(C(=O)N4CCCCC4)cnn23)cc1 [Example 73, N-(isoxazol-3-ylmethyl)-4-(3-(piperidine-1-carbonyl)pyrazolo[1,5-a]pyridin-7-yl)benzamide] | > 1.5
5 | ≤ 100 nM | O=C(c1cnn2c(-c3ccnc(Cl)c3)cccc12)N1CCCCC1 [Example 8, (7-(2-chloropyridin-4-yl)pyrazolo[1,5-a]pyridin-3-yl)(piperidin-1-yl)methanone] | > 1.5
6 | ≤ 100 nM | CNC(=O)c1cncc(-c2cccc3c(C(=O)N4CCCCC4)cnn23)c1 [Example 40, N-methyl-5-(3-(piperidine-1-carbonyl)pyrazolo[1,5-a]pyridin-7-yl)nicotinamide] | > 1.5
7 | ≤ 100 nM | O=C(c1ncc(-c2cccc3c(C(=O)N4CCCCC4)cnn23)cn1)N1CCC1 [Example 277, [7-[2-(azetidine-1-carbonyl)pyrimidin-5-yl]pyrazolo[1,5-a]pyridin-3-yl]-(1-piperidyl)methanone] | > 1.5
8 | ≤ 100 nM | O=C(Nc1ccncc1)c1cncc(-c2cccc3c(C(=O)N4CCCCC4)cnn23)c1 [Example 54, 5-(3-(piperidine-1-carbonyl)pyrazolo[1,5-a]pyridin-7-yl)-N-(pyridin-4-yl)nicotinamide] | > 1.5
9 | ≤ 100 nM | O=C(c1cnn2c(-c3ccc(Br)cc3)cccc12)N1CCCCC1 [Example 292, (7-(4-bromophenyl)pyrazolo[1,5-a]pyridin-3-yl)(piperidin-1-yl)methanone] | > 1.5
10 | ≤ 100 nM | O=C(c1cnn2c(-c3cc(Cl)nc(Cl)c3)cccc12)N1CCCCC1 [Example 282, (7-(2,6-dichloropyridin-4-yl)pyrazolo[1,5-a]pyridin-3-yl)(piperidin-1-yl)methanone] | < 1.5
11 | ≤ 100 nM | O=C(c1cnn2c(-c3ccc(-c4nnco4)cc3)cccc12)N1CCCCC1 [Example 350, [7-[4-(1,3,4-oxadiazol-2-yl)phenyl]pyrazolo[1,5-a]pyridin-3-yl]-(1-piperidyl)methanone] | > 1.5
12 | ≤ 100 nM | O=C(Cc1cncc(F)c1)Nc1ccc(-c2cccc3c(C(=O)N4CCCCC4)cnn23)cn1 [Example 409, 2-(5-fluoropyridin-3-yl)-N-(5-(3-(piperidine-1-carbonyl)pyrazolo[1,5-a]pyridin-7-yl)pyridin-2-yl)acetamide] | > 1.5
13 | ≤ 100 nM | Cc1nc(-c2ccc(-c3cccc4c(C(=O)N5CCCCC5)cnn34)c(F)c2)no1 [Example 296, [7-[2-fluoro-4-(5-methyl-1,2,4-oxadiazol-3-yl)phenyl]pyrazolo[1,5-a]pyridin-3-yl]-(1-piperidyl)methanone] | > 1.5
14 | ≤ 100 nM | O=C(c1cccc(-c2cccc3c(C(=O)N4CCCCC4)cnn23)c1)N1CCC1 [Example 29, azetidin-1-yl(3-(3-(piperidine-1-carbonyl)pyrazolo[1,5-a]pyridin-7-yl)phenyl)methanone] | > 1.5
15 | ≤ 100 nM | O=C(Nc1ccc(-c2cccc3c(C(=O)N4CCCCC4)cnn23)cc1)C1CCCCC1 [Example 102, N-(4-(3-(piperidine-1-carbonyl)pyrazolo[1,5-a]pyridin-7-yl)phenyl)cyclohexanecarboxamide] | < 1.5
16 | ≤ 100 nM | O=C1NCc2ccc(-c3cccc4c(C(=O)N5CCCCC5)cnn34)cc21 [Example 140, 6-(3-(piperidine-1-carbonyl)pyrazolo[1,5-a]pyridin-7-yl)isoindolin-1-one] | > 1.5

Row | IC50 [1] | SMILES | fold induction at 1 µM [2]
17 | ≤ 100 nM | O=C(Cc1cncc(F)c1)Nc1cncc(-c2cccc3c(C(=O)N4CCCCC4)cnn23)c1 [Example 402, 2-(5-fluoropyridin-3-yl)-N-(5-(3-(piperidine-1-carbonyl)pyrazolo[1,5-a]pyridin-7-yl)pyridin-3-yl)acetamide] | > 1.5
18 | ≤ 100 nM | Nc1noc2cc(-c3cccc4c(C(=O)N5CCCCC5)cnn34)ccc12 [Example 320, [7-(3-amino-1,2-benzoxazol-6-yl)pyrazolo[1,5-a]pyridin-3-yl]-(1-piperidyl)methanone] | > 1.5
19 | ≤ 100 nM | Nc1cccc(-c2cccc3c(C(=O)N4CCCCC4)cnn23)c1 [Example 7, (7-(3-aminophenyl)pyrazolo[1,5-a]pyridin-3-yl)(piperidin-1-yl)methanone] | > 1.5
20 | ≤ 100 nM | CN1CCC(NC(=O)c2ccc(-c3cccc4c(C(=O)N5CCCCC5)cnn34)cn2)CC1 [Example 81, N-(1-methylpiperidin-4-yl)-5-(3-(piperidine-1-carbonyl)pyrazolo [1,5-a]pyridin-7-yl)picolinamide] | > 1.5
21 | ≤ 100 nM | O=C(Nc1ccncc1)c1ccc(-c2cccc3c(C(=O)N4CCCCC4)cnn23)cc1 [Example 72, 4-(3-(piperidine-1-carbonyl)pyrazolo[1,5-a]pyridin-7-yl)-N-(pyridin-4-yl)benzamide] | > 1.5
22 | ≤ 100 nM | CN(C)CC(=O)Nc1ccc(-c2cccc3c(C(=O)N4CCCCC4)cnn23)cn1 [Example 104, 2-(dimethylamino)-N-(5-(3-(piperidine-1-carbonyl)pyrazolo[1,5-a]pyridin-7-yl)pyridin-2-yl)acetamide] | > 1.5
23 | ≤ 100 nM | O=C(c1ccc(-c2cccc3c(C(=O)N4CCCCC4)cnn23)cn1)N1CCC1 [Example 77, azetidin-1-yl(5-(3-(piperidine-1-carbonyl)pyrazolo[1,5-a]pyridin-7-yl)pyridin-2-yl)methanone] | > 1.5
24 | ≤ 100 nM | O=C(c1cnn2c(-c3ccc(-c4noc(=O)[nH]4)c(F)c3)cccc12)N1CCCCC1 [Example 304, 3-[2-fluoro-4-[3-(piperidine-1-carbonyl)pyrazolo[1,5-a]pyridin-7-yl]phenyl]-4H-1,2,4-oxadiazol-5-one] | > 1.5
25 | ≤ 100 nM | O=C(c1cnn2c(-c3ccc4cc[nH]c(=O)c4c3)cccc12)N1CCCCC1 [Example 134, 7-(3-(piperidine-1-carbonyl)pyrazolo[1,5-a]pyridin-7-yl)isoquinolin-1(2H)-one] | > 1.5
26 | ≤ 100 nM | Cc1nc(-c2ccc(-c3cccc4c(C(=O)N5CCCCC5)cnn34)cc2F)no1 [Example 303, [7-[3-fluoro-4-(5-methyl-1,2,4-oxadiazol-3-yl)phenyl]pyrazolo[1,5-a]pyridin-3-yl]-(1-piperidyl)methanone] | > 1.5
27 | ≤ 100 nM | O=C1NCc2ccc(-c3cccc4c(C(=O)N5CCC6(CCC6)CC5)cnn34)cc21 [Example 392, 6-(3-(7-azaspiro[3.5]nonane-7-carbonyl)pyrazolo[1,5-a]pyridin-7-yl)isoindolin-1-one] | > 1.5
28 | ≤ 100 nM | N#Cc1ncc(-c2ccc(-c3cccc4c(C(=O)N5CCCCC5)cnn34)cc2)cn1 [Example 305, 5-[4-[3-(piperidine-1-carbonyl)pyrazolo[1,5-a]pyridin-7-yl]phenyl]pyrimidine-2-carbonitrile] | > 1.5
29 | ≤ 100 nM | COC(=O)c1cccc(-c2cccc3c(C(=O)N4CCCCC4)cnn23)c1 [Example 3, methyl 3-(3-(piperidine-1-carbonyl)pyrazolo[1,5-a]pyridin-7-yl)benzoate] | < 1.5
30 | ≤ 100 nM | O=C(c1cnn2c(-c3cnc(Cl)nc3)cccc12)N1CCCCC1 [Example 267, (7-(2-chloropyrimidin-5-yl)pyrazolo[1,5-a]pyridin-3-yl)(piperidin-1-yl)methanone] | > 1.5
31 | ≤ 100 nM | CN(C)C1CN(c2cc(-c3cccc4c(C(=O)N5CCCCC5)cnn34)cc(-c3cncc(F)c3)n2)C1 [Example 375, (7-(6-(3-(dimethylamino)azetidin-1-yl)-5'-fluoro-[2,3'-bipyridin]-4-yl)pyrazolo[1,5-a]pyridin-3-yl)(piperidin-1-yl)methanone] | > 1.5

Row | SMILES | IC50 [1] | fold induction at 1 µM [2]
32 | COCCC(=O)Nc1cncc(-c2cccc3c(C(=O)N4CCCCC4)cnn23)c1 [Example 197] | ≤ 100 nM | > 1.5
